Measurements published in patent US20150079000A1, “Labelled Quinoxaline Derivatives as Multimodal Radiopharmaceuticals and Their Precursors” (INSTITUT NATIONAL DE LA SANTET DE LA RECHERCHE MEDICALE, priority 2012, published 2015).

Experiments:
[1] = octanol/water (PBS buffer) partition coefficient (log D); assay type: physicochemical
[2] = test system: A375 tumours; test: PET imaging in A375 tumour bearing mice; assay type: in vivo, Swiss nudes mice; details: 1 h p.i.
Method: (§1) Protocols were performed under the authorization of the French Direction des Services Veterinaires (authorization no. CE 86-12). Female Swiss nudes mice (6 weeks old) were originating from Charles River laboratories and maintained at 21° C. with a 12 h/12 h light/dark cycle, fed with a breeding diet (diet A04 from Safe, Villemoisson, France) and received water ad libitum. For transplantation cell suspension were grown in a monolayer culture to confluence, after which cells were trypsinized, washed with phosphate buffer saline (PBS) and they were resuspended in PBS. Mice were anesthetized by isoflurane (4% for induction and 2±0.5% for maintaining in oxygen flux) inhalation. The primary tumour model was induced by subcutaneous injection of 3×10^6 melanoma SKMEL-3 (pigmented cell line) or A375 (non-pigmented cell ligne) cells in 0.1 mL on the right shoulder of mice.
(§2) Whole-body PET scans were acquired 1 h after bolus injection of 10 MBq of [^18F](1) in a volume of 0.15 ml via the tail vein. […]
(§3) Regional tracer uptake was quantified by standard region-of-interest (ROI) analysis with eXplore Vista software package. […]

[3] = test system: SKMEL-3 tumours; test: PET imaging in SKMEL-3 tumour bearing mice; assay type: in vivo, Swiss nudes mice; details: 1 h p.i.
Method: as §1, §2, §3

With `CCN(CCNC(=O)c1cnc2cc(I)ccc2n1)CCOCCOCCOCC[18F]` [[^18F](1)] the “octanol/water (PBS buffer) partition coefficient (log D)” value [1] was 1.52±0.03, the muscles activity ([2]; A375 tumour bearing mice) was 1.14±0.28 % ID/g and the tumour uptake ([2]; day-23, unpigmented A375 tumours) was 1.87±0.34 % ID/g. It also gave a muscles activity ([3]; SKMEL-3 tumour bearing mice) of 1.34±0.42 % ID/g and a tumour uptake ([3]; day-27, pigmented SKMEL-3 tumours) of 4.65±1.07 % ID/g.
